Measurements taken from ChEMBL document CHEMBL4622891, “Design, synthesis, and pharmacological evaluation of 2-(4-sulfonylphenyl)-2-[(E)-pyrrolidin-1-ylimino]-N-thiazoleacetamides as glucokinase activators” (Bioorg Med Chem Lett, 2020).

What follows are molecules tested against Voltage-gated inwardly rectifying potassium channel KCNH2 (Homo sapiens, UniProt Q12809) (assay: Inhibition of human ERG).
Voltage-gated inwardly rectifying potassium channel KCNH2, sequence (Q12809 whole entry): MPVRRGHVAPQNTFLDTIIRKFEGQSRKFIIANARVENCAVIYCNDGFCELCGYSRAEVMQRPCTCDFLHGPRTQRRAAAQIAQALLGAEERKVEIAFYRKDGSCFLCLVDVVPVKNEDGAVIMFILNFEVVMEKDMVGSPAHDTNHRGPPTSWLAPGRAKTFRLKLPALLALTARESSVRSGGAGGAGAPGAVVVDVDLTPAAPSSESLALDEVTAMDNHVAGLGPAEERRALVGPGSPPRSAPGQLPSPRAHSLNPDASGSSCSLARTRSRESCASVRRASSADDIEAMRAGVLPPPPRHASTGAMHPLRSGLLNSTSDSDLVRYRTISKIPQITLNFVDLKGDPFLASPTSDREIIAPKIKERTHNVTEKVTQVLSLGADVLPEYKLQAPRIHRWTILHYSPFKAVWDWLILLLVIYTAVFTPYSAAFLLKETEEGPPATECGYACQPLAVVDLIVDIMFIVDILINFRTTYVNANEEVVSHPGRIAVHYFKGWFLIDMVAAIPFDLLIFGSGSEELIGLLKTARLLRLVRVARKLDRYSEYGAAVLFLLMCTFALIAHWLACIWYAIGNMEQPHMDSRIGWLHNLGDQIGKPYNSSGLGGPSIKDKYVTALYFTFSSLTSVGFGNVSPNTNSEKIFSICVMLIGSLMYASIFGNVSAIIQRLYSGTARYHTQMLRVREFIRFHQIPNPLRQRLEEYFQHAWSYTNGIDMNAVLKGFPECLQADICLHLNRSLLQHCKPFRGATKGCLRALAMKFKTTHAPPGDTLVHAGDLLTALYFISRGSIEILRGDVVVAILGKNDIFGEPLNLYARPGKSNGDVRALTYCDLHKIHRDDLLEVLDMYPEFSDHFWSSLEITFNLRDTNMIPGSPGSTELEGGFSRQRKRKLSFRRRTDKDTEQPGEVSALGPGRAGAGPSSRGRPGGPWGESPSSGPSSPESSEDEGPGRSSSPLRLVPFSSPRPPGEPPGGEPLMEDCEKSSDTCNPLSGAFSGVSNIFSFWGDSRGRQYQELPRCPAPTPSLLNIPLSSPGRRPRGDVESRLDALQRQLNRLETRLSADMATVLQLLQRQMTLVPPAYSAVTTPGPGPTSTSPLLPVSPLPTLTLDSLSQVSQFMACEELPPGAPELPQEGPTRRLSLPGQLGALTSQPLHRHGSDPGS

Q: How did the IC50 turn out when `CC(=O)N1CCN(Cc2cnc(NC(=O)/C(=N/N3CCCC3)c3ccc(S(=O)(=O)C4CC4)cc3)s2)CC1` was run?
A: > 100 µM

Q: `O=C(Nc1nccs1)/C(=N/N1CCCC1)c1ccc(S(=O)(=O)C2CC2)cc1` was tested. Which IC50 did it give?
A: 17.5 µM

Q: Which IC50 does the source give for `Cc1nnc(NC(=O)/C(=N/N2CCCC2)c2ccc(S(=O)(=O)C3CC3)cc2)s1` here?
A: > 100 µM

Q: How did the IC50 turn out when `O=C(Nc1ncc(Cl)s1)/C(=N/N1CCCC1)c1ccc(S(=O)(=O)C2CC2)cc1` was run?
A: 16.7 µM

Q: For `Cc1cnc(NC(=O)/C(=N/N2CCCC2)c2ccc(S(=O)(=O)C3CC3)cc2)s1`, which IC50 is on record?
A: > 100 µM
